Test results reported in US8399206B2, “Methods for diagnosis, prognosis and methods of treatment” (Nodality, Inc., priority 2008, dated 2013).

Tests used:
Assay type in all cases: cell-based, human
AML leukemic cells = experiment: Apoptosis/cytostasis arm: 48-hr kinase inhibitor incubation of AML cells (cleaved PARP, CyclinB1, p-Histone H3); settings: 1 μM; two samples with the greatest SCF and G-CSF signaling response and most robust proliferation
Protocol: The TKIs impact was measured on distal functional readouts, including apoptosis (cleaved PARP) and cell cycle (CyclinB1-S/G2 phase; p-Histone H3-M phase). All results were compared with results from bone marrow samples from healthy donors (N=6).

AML BMMC leukemic blasts [1] = experiment: Functional apoptosis assay, AML study No. 2 (etoposide or Ara-C and daunorubicin, 24 hours); settings: patients younger than 60 years old
Protocol: Multi-parameter flow cytometric analysis was performed on BMMC samples taken at diagnosis from 61 AML patients. The samples were balanced for complete response (CR) and non-responders (NR) after 1 to 3 cycles of induction therapy and de novo versus secondary AML. Nodes in Tables 2 to 10 were examined.
Functional assays were performed as previously described. […]
The median fluorescence intensity (MFI) was computed for each node from the fluorescence intensity levels for the cells in the myeloid population. The MFI values were then used to compute a variety of metrics by comparing them to baseline or background values, including the unmodulated condition, cellular autofluorescence and antibody isotype controls. The following metrics were computed: • 1. Basal MFI (“Basal”)=log2(MFIUnmodulated Stained)−log2(MFIGated Unstained (Autofluoresence)), designed to measure the basal levels of a certain protein under unmodulated conditions. • 2. Fold Change MFI (“Fold”)=log2(MFIModulated Stained)−log2(MFIUnmodulated Stained), a measure of the change in the activation state of a protein under modulated conditions. • 3. Total Phospho MFI (“TotalPhospho”)=log2(MFIModulated Stained)−log2(MFIGated Unstained (Autofluorescence)), a measure of the total levels of a protein under modulated conditions. • 4. […]

[2] = system: FLT3-WT and FLT3-ITD AML leukemic blasts; experiment: SCNP signaling and apoptosis in FLT3-WT versus FLT3-ITD AML samples (Example 9); settings: FLT3-ITD vs FLT3-WT samples, study 1 and study 2
Description: This example identifies intracellular signaling pathways associated with FLT3 ITD in two independent cohorts of diagnostic AML samples that serve as an improvement over current clinical tools in the identification of clinically meaningful altered FLT 3 and has implications for cohort selection in the development of FLT3 inhibitors. The two cohorts of data were further analyzed to investigate the differences in signaling between FLT-WT and FLT-ITD samples. The first cohort of data (“study 1”) comprised the 34 samples from University Health Network outlined in Table 16 and Table 19. The second cohort of data (“study 2”) comprised an 83 sample subset of MD Anderson Cancer Center data outlined in Table 16 (and Table 19). The 83 sample subset was selected based on known FLT3 mutation status. Both cohorts of data were used to investigate differences in FLT3 signaling between leukemic blasts and control data.
In order to further characterize wild-type FLT receptor signaling in AML, we compared FLT3L-induced signaling in the myeloblast population of control BMMC samples with FLT3L-induced signaling in the leukemic blast population of FLT3-WT AML samples.
Univariate analysis, unadjusted for multiple testing, was performed sequentially and independently on the two study cohorts in order to identify signaling nodes that distinguished with FLT3-ITD from FLT3-WT AML patient samples. […] Results from both studies include the AUC, Wilcoxon and t-test p-value for each node, and the number/mean value of the samples in the FLT3-ITD and FLT3-WT AML groups with common stratifying nodes summarized in FIG. 23. Although the majority of the discussion herein is directed to nodes that had similar reponses within the two cohorts of data, some differences were observed between the two cohorts of data. These differences may have been due to the different clinical characteristics of the two cohorts of data, specifically biases in the data from UHN.

[3] = system: pediatric AML leukemic blasts; experiment: SCNP assay on pediatric AML bone marrow samples, POG trial 9421 (Example 11)
Protocol: SCNP assays were performed on 77 bone marrow samples from pediatric AML patients enrolled in POG trial 9421 of which 67 were evaluable/had sufficient data for analysis and were enriched for non-responders (NR). 80 combinations of modulators and intra-cellular proteins (signaling nodes) were investigated including nodes involved in the phosphoinositide 3-kinase (PI3K), Janus Kinases (JAK), signal transducers and activators of transcription (STAT) and the DNA damage response and apoptosis pathways. Basal and modulated protein levels in leukemic blasts were measured using several metrics (e.g., fold change, total level of phosphorylation, and a rank based method Uu measuring the proportion of cells that shift from baseline), and nodes were examined in univariate and multivariate analyses for their ability to discriminate between AML responsive (CR, n=46) and non-responsive (NR, n=21) to anthracycline/cytarabine-based induction therapy. Furthermore, nodes were examined for their ability to identify patients likely to be in complete continuous remission (CCR, n=23) or relapse (CR-Rel, n=23) within 4 years.

AML blasts = experiment: SCNP / phospho-flow modulated signaling assay, AML study No. 1 (PBMC at diagnosis, CR vs NR)
Description: The present illustrative example represents how to analyze cells in one embodiment of the present invention. There are several steps in the process, such as the stimulation step, the staining step and the flow cytometry step. The stimulation step of the phospho-flow procedure can start with vials of frozen cells and end with cells fixed and permeabilized in methanol. Then the cells can be stained with an antibody directed to a particular protein of interest and then analyzed using a flow cytometer.
Frozen cells are thawed in a 37° C. water bath and gently resuspended in the vial and transferred to the 15 mL conical tube. The 15 mL tube is centrifuged at 930 RPM (200×g) for 8 minutes at room temperature. The supernatant is aspirated and the pellet is gently resuspended in 1 mL media A. The cell suspension is filtered through a 70 um cell strainer into a new 15 mL tube. The cell strainer is rinsed with 1 mL media A and another 12 ml of media A into the 15 mL tube. The cells are mixed into an even suspension. A 20 μL aliquot is immediately removed into a 96-well plate containing 180 μL PBS+4% FBS+CD45 Alexa 700+PI to determine cell count and viability post spin. After the determination, the 15 mL tubes are centrifuged at 930 RPM (200×g) for 8 minutes at room temperature. The supernatant is aspirated and the cell pellet is gently resuspended in 4 mL PBS+4 μL Amine Aqua and incubated for 15 min in a 37° C. incubator. 10 mL RPMI+1% FBS is added to the cell suspension and the tube is inverted to mix the cells. The 15 mL tubes are centrifuged at 930 RPM (200×g) for 8 minutes at room temperature. The cells are resuspended in Media A at the desired cell concentration (1.25×10^6/mL). For samples with low numbers of cells (<18.5×10^6), the cells are resuspended in up to 15 mL media. For samples with high numbers of cells (>18.5×10^6), the volume is raised to 10 mL with media A and the desired volume is transferred to a new 15 mL tube, and the cell concentration is adjusted to 1.25×10^6 cells/ml. 1.6 mL of the above cell suspension (concentration at 1.25×10^6 cells/ml) is transferred into wells of a multi-well plate. From this plate, 80 ul is dispensed into each well of a subsequent plate. The plates are covered with a lid (Nunc) and placed in a 37° C. incubator for 2 hours to rest.
A concentration for each stimulant that is five folds more (5×) than the final concentration is prepared using Media A as diluent. 5× stimuli are arrayed into wells of a standard 96 well v-bottom plate that correspond to the wells on the plate with cells to be stimulated.
Adding the stimulant: The cell plate(s) are taken out of the incubator and placed in a 37° C. water bath next to the pipette apparatus. The cell plate is taken from the water bath and gently swirled to resuspend any settled cells. With pipettor, the stimulant is dispensed into the cell plate and vortexed at “7” for 5 seconds. The deep well plate is put back into the water bath.
Adding Fixative: 200 μl of the fixative solution (final concentration at 1.6%) is dispensed into wells and then mixed on the titer plate shaker on high for 5 seconds. The plate is covered with foil sealer and incubated in a 37° C. water bath for 10 minutes. The plate is spun for 6 minutes at 2000 rpm at room temperature. The cells are aspirated using a 96 well plate aspirator (VP Scientific). The plate is vortexed to resuspend cell pellets in the residual volume. The pellet is ensured to be dispersed before the Methanol step (see cell permeabilization) or clumping will occur.
Cell Permeabilization: Permeability agent, for example methanol, is added slowly and while the plate is vortexing. To do this, the cell plate is placed on titer plate shaker and made sure it is secure. The plate is set to shake using the highest setting. A pipetter is used to add 0.6 mls of 100% methanol to the plate wells. The plate(s) are put on ice until this step has been completed for all plates.

AML BMMC leukemic blasts [4] = experiment: SCNP modulated signaling assay, AML study No. 2 (BMMC, CR vs NR, clinical sub-groups)
Protocol: Two independent sets of cryopreserved samples were analyzed sequentially. The first set consisted of 35 peripheral blood mononuclear cell (PBMC) samples derived from AML patients. The second set consisted of 134 cryopreserved bone marrow mononuclear cell (BMMC) samples derived from AML patients. These samples were the same samples used in the previous examples. Sample inclusion criteria required collection prior to initiation of induction chemotherapy, AML classification by the French-American-British (FAB) criteria as M0 through M7 (excluding M3) and availability of clinical annotations.
In the first study, induction chemotherapy consisted of at least one cycle of standard cytarabine-based induction therapy (i.e. daunorubicin 60 mg/m^2×3 days, cytarabine 100-200 mg/m^2 continuous infusion×7 days); responses were measured after one cycle of induction therapy. In the second study, cytarabine (200 mg/m^2 to 3 g/m^2) was used in combination with an anthracycline (daunorubicin or idarubicin) or an additional anti-metabolite (e.g. fludarabine or troxacitabine), and sometimes, an experimental agent (Table 16). […] Standard clinical and laboratory criteria were used for defining complete response (CR) in both studies. […] Classified as “CRp,” these samples were included in the CR group for all primary analysis. The univariate analyses were also repeated with the CRp patients classified into the NR sample group for sensitivity analysis.
Cyropreserved samples were thawed at […], washed and centrifuged in PBS, 10% FBS and 2 mM EDTA. The cells were re-suspended, filtered to remove debris and washed in RPMI cell culture media, 1% FBS, then stained with Live/Dead Fixable Aqua Viability Dye to distinguish non-viable cells. The cells were then re-suspended in RPMI, 1% FBS, aliquoted to 100,000 cells/condition and rested for 1-2 hours at 37° C. prior to SCNP assays. Each condition included two to five phenotypic markers for cell population gating (eg, CD45, CD33), up to three intracellular stains or up to three additional surface markers or control antibodies for an eight-color flow cytometry assay.
Functional assays were performed as previously described. Cells were incubated with modulators (Table 18), at 37° C. for 3-15 minutes, fixed with 1.6% paraformaldehyde (final concentration) for 10 minutes at 37° C., pelleted and permeabilized with 100% ice-cold methanol and stored at −80° C.
Data was acquired using FACS DIVA software on both LSR II and CANTO II Flow Cytometers (BD). For all analyses, dead cells and debris were excluded by forward scatter (FSC), side scatter (SSC), and Amine Aqua Viability Dye measurement. Leukemic cells were identified as cells that lacked the characteristics of mature lymphocytes (CD45^++, CD33^−) and that fit the CD45 and CD33 versus right-angle light-scatter characteristics consistent with myeloid leukemia cells.
The median fluorescence intensity (MFI) was computed for each node from the fluorescence intensity levels for the cells in the myeloid population. The MFI values were then used to compute a variety of metrics by comparing them to baseline or background values, including the unmodulated condition, cellular autofluorescence and antibody isotype controls. The following metrics were computed: • 1. Basal MFI (“Basal”)=log2(MFIUnmodulated Stained)−log2(MFIGated Unstained (Autofluoresence)), designed to measure the basal levels of a certain protein under unmodulated conditions. • 2.

[5] = Study No. 2, all patients, CR samples
[6] = Study No. 2, all patients, NR samples
[7] = Study No. 1 sensitivity analysis, CR samples
[8] = Study No. 1 sensitivity analysis, NR samples incl. CRp

C[C@@H]1CCN(C(=O)CC#N)C[C@@H]1N(C)c1ncnc2[nH]ccc12 [CP-690,550]
sensitivity to kinase inhibitor as measured by cytostasis readouts (AML leukemic cells): most sensitive

COc1cc([C@@H]2c3cc4c(cc3[C@@H](O[C@@H]3O[C@@H]5CO[C@@H](C)O[C@H]5[C@H](O)[C@H]3O)[C@H]3COC(=O)[C@H]23)OCO4)cc(OC)c1O [Etoposide]
induced apoptosis, CR vs NR (AML BMMC leukemic blasts [1]): CRs induce apoptosis to Etoposide or Ara-C/Daunorubicin more than NRs
in vitro apoptosis (etoposide→c-PARP|Total) [2]: more sensitive to in vitro apoptosis than FLT3-WT samples
apoptotic response (c-PARP, p-Chk2), CR vs NR ([3]; CR n=46, NR n=21): higher levels of apoptosis in CR samples than in NR samples

OO [H2O2, hydrogen peroxide, reference compound]
phosphorylated PLCγ2 and SLP-76 upon H2O2 treatment (AML blasts; CR patients versus NR patients): attained higher levels of phosphorylated PLCγ2 and SLP-76 upon H2O2 treatment
p-Akt levels upon H2O2 treatment (AML blasts; NR vs CR patient blasts): higher levels of p-Akt in NR patients versus CR patients
p-AKT and p-PLCγ2 following H2O2 treatment (AML BMMC leukemic blasts [4]; NR samples, older patient cohort (>=60 years)): increases in p-AKT and p-PLCγ2
Mean Value of CRs, p-Akt Fold (AML BMMC leukemic blasts [4]; [5]): 0.68
Mean Value of NRs, p-Akt Fold (AML BMMC leukemic blasts [4]; [6]): 0.91
H2O2 and FLT3L responses, NR vs CR (AML BMMC leukemic blasts [4]; patients younger than 60 years old (so in the source)): NRs have higher H2O2 and FLT3L responses than CRs
p-Akt and p-PLC gamma levels with hydrogen peroxide as modulator ([3]; NR samples): lower p-Akt and p-PLC gamma levels in NR samples

C/C=C(/C)C(=O)O[C@H]1C(C)=C2[C@H]([C@@H]1OC(=O)CCCCCCC)[C@@](C)(OC(C)=O)C[C@H](OC(=O)CCC)[C@@]1(O)[C@H]2OC(=O)[C@@]1(C)O [Thapsigargin, reference compound]
Mean Value of CRs, p-CREB Total Phospho (AML blasts; [7]): 1.79
Mean Value of CRs, p-S6 Fold (AML blasts; [7]): 0.03
Mean Value of CRs, p-S6 Total Phospho (AML blasts; [7]): 0.31
Mean Value of NRs, p-CREB Total Phospho (AML blasts; [8]): 2.77
Mean Value of NRs, p-S6 Fold (AML blasts; [8]): 0.31
Mean Value of NRs, p-S6 Total Phospho (AML blasts; [8]): 0.67
Mean Value of CRs, p-Erk Fold (AML BMMC leukemic blasts [4]; [5]): 1.22
Mean Value of NRs, p-Erk Fold (AML BMMC leukemic blasts [4]; [6]): 0.36
induction of p-Erk, p-CREB and p-S6 ([3]; relapse vs complete continuous remission (CCR)): less in CR-Rd than in CCR samples
